Reference: ChEMBL document CHEMBL4190294, “Design, synthesis and antiproliferative activity of decarbonyl luotonin analogues” (Eur J Med Chem, 2017)
Calls of active or inactive are those of the source. No cut-off for these calls is given here.

Tests used:
[1] = test system: KB; assay: Cytotoxicity against human KB cells assessed as reduction in cell viability after 72 hrs by MTT assay; type: functional, cell-based
[2] = target: T1, DNA topoisomerase 1 (Homo sapiens) (UniProt P11387); assay: Inhibition of human topoisomerase-1 expressed in baculovirus infected insect cells at 80 uM using supercoiled pGEM-5Zf(+) plasmid DNA as substrate after 30 mins by agarose gel electrophoresis method
T1 sequence (whole entry): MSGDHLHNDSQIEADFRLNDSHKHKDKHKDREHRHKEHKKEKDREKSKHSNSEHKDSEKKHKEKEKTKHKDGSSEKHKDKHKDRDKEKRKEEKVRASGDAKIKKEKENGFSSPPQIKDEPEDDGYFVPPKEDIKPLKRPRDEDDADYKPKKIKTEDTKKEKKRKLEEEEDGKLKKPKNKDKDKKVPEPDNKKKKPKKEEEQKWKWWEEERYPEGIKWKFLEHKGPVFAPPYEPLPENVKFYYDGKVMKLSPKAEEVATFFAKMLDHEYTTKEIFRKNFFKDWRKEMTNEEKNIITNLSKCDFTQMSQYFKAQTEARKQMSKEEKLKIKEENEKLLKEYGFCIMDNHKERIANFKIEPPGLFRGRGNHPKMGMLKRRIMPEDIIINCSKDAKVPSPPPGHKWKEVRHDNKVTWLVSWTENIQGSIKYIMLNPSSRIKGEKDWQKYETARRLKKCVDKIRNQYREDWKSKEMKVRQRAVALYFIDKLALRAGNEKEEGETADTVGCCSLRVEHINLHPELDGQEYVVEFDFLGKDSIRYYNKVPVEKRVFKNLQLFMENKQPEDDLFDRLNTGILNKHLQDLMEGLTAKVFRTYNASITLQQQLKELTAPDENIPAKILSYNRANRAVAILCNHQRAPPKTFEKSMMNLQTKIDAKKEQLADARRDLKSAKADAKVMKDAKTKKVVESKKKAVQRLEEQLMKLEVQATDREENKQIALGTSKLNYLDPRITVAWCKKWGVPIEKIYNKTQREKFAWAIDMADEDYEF

[3] = test system: MDA-MB-231; assay: Cytotoxicity against human MDA-MB-231 cells assessed as reduction in cell viability after 72 hrs by MTT assay; type: functional, cell-based; settings: MDA-MB-231, 72 h
[4] = test system: LNCaP; assay: Cytotoxicity against human LNCAP cells assessed as reduction in cell viability after 72 hrs by MTT assay; type: functional, cell-based
[5] = test system: HT-1080; assay: Cytotoxicity against human HT1080 cells assessed as reduction in cell viability after 72 hrs by MTT assay; type: functional, cell-based; settings: HT-1080, 72 h
[6] = test system: KB; assay: Cytotoxicity against human KB cells assessed as reduction in cell viability at 12.5 uM after 72 hrs by MTT assay; type: functional, cell-based

inhibition [2] | Compound | IC50 [1] [µM] | IC50 [3] [µM] | IC50 [4] [µM] | IC50 [5] [µM] | Activity [6]
Active | COc1cccc2cc3c(nc12)-c1nc2ccccc2n1C3 | 16.9 | > 100 | 20 | > 100 | 
Active | Brc1cccc2cc3c(nc12)-c1nc2ccccc2n1C3 | 15.3 | 11.3 | 8.4 | 66 | 
Active | COc1ccc2cc3c(nc2c1)-c1nc2ccccc2n1C3 | 40.6 | > 100 | 25 | 95 | 
Active | COc1ccc2nc3c(cc2c1)Cn1c-3nc2ccccc21 | 20 | > 100 | 24.7 | 52.3 | 
Active | Cc1cccc2cc3c(nc12)-c1nc2ccccc2n1C3 | 20 | > 100 | 23.8 | > 100 | 

Further lines, the compound ahead of its results:

Compound | inhibition [2] | IC50 [1] [µM] | IC50 [3] [µM] | IC50 [4] [µM] | IC50 [5] [µM] | Activity [6]
Cc1ccc2cc3c(nc2c1)-c1nc2ccccc2n1C3 | Active | 75 | > 100 | 39 | 8.7 | 
O=c1c2ccccc2nc2n1Cc1cc3ccccc3nc1-2 |  |  |  |  |  | Active
Cc1ccc2nc3c(cc2c1)Cn1c-3nc2ccccc21 | Active | 11.3 | > 100 | 62.5 | 9.3 | 
c1ccc2nc3c(cc2c1)Cn1c-3nc2ccccc21 | Active | 10.9 | 12 | 11.3 | 52.9 | 
Clc1cccc2cc3c(nc12)-c1nc2ccccc2n1C3 |  | 11.5 | 69 | 24 | 28.7 | Active
